Test results taken from publication PMC4285699 (Journal of molecular biology, 2009).

What was measured:
[1] = target: HIV-1 RT-associated RNase H activity (Human immunodeficiency virus type 1 group M subtype B, UniProt P03366); test: Pre-steady-state single turnover RNase H reactions; format: biochemical; conditions: PFA 0-10 μM, dTMP-terminated primer
[2] = target: T1, HIV-1 RT-associated RNase H activity (polymerase-independent) (Human immunodeficiency virus type 1 group M subtype B, UniProt P03366); format: biochemical; conditions: PFA 200 μM; chimeric substrate PBS-14r8d, 0-40 min
[3] = target: T1, HIV-1 RT-associated RNase H activity (polymerase-independent); test: biochemical; conditions: IC50, primary cleavage, 600 nM chimeric hybrid labelled at 3' DNA end, 50 nM RT
p66^AzF/p51 RT = test: FRET-based RNase H assay; format: biochemical, HIV-1; conditions: azido function at position 501 (AzF)
p66^501BpF/p51 RT = p66^501BpF/p51 RT (Human immunodeficiency virus type 1, UniProt P03366, Y1100X); test: FRET-based RNase H assay; format: biochemical, HIV-1

Q: Which “Position of RNase H cleavage with increasing ligand concentration” value [1] does the source give for `O=C(O)P(=O)(O)O` [PFA, Phosphonoformic acid] here?
A: Its value is “biased cleavage to position -19”.

Q: What about the “Inhibition of polymerase-independent RNase H cleavage” value [2] of the same compound?
A: The value was “does not inhibit RNase H cleavage”.

Q: `CC(C)c1ccc(O)c(=O)c(O)c1` [β-thujaplicinol] was tested. Which IC50 [3] did it give?
A: The IC50 was over 25 µM.

Q: And the “Effect of mutation on β-thujaplicinol sensitivity” value (p66^AzF/p51 RT)?
A: The value was “little to no effect”.

Q: What about the IC50 (p66^501BpF/p51 RT) of the same compound?
A: The IC50 was over 300 µM.
